Test system: patients
Assay: Amenorrhea in patients on neuroleptic therapy
Assay type: in vivo, human
Settings: tablets 100 or 200 mg per day, 3 months
Procedure: Investigation of the effect of Phenotropil in amenorrhea and functional dysmenorrhea was conducted on groups of patients aged 14-27 years. The first group (20-27 years) diagnosed with schizophrenia, was on the maintenance neuroleptic therapy and had menstrual cycle irregularities in the form of amenorrhea (for more than 6 months). Of those, 4 had amenorrhea of not established nature, observed also prior to the pronounced primary manifestation of mental disorder, 6 patients had amenorrhea that developed during treatment with neuroleptics. Phenotropil, tablets was administered in doses of 100 mg and 200 mg per day as part of a complex antipsychotic therapy as a corrector of psychogenic side effects of neuroleptics. The dose was selected based on the individual and clinical features of the patients. The duration of Phenotropil therapy was 3 months. Two groups (14-18 years) with functional dysmenorrhea and manifestations of pronounced spastic symptoms were studied. Duration of the Phenotropil monotherapy (50 and 100 mg per day) was one month followed by administration of the drug at one-week courses as a preventive agent. Patients with functional dysmenorrhea were investigated for cAMP level in comparison with the norm control group. The cAMP level was determined using the standard kits, by the method based on the competition with the labeled cyclic 3′,5-adenosine monophosphate in the level of binding with […].

With `NC(=O)CN1CC(c2ccccc2)CC1=O` (racemic) [Compound 1, (RS)-2-(2-oxo-4-phenylpyrrolidine-1-yl)acetamide] the “patients restored, amenorrhea of unknown nature” value was 30.0%, the “patients restored, amenorrhea on antipsychotic therapy” value was 40.0% and the “patients with restored menstruations and menstrual cycle” value (n=10) was 70%.

Source: patent US20140315972A1, “RS)-2-(2-oxo-4-phenylpyrrolidin-1-yl)acetamide compound having modulatory activity with a commensurate effect, pharmaceutical substance (variants) and its application, composition (variants) thereof” (priority 2011, published 2014)
